Laboratory results as given in patent US20100210649A1, “PYRIDAZINONES AND FURAN-CONTAINING COMPOUNDS” (Sloan-Kettering Institute for Cancer Research, priority 2006, published 2010).

Tests used:
Type in all cases: cell-based, human
[1] = system: H2030; assay: Non Small Cell Lung Cancer proliferation assay (Alamar Blue reduction), H2030; settings: Homo sapiens, NCI-H2030; primary screening; H2030; 10 μM compound in 1% DMSO (v/v); read-out: PRIMARY HTS [%] H2030 (percentage inhibition)
Protocol: (§1) These cells have a doubling time of 1-2 days. All cell types are adherent and grow in colonies. The cells should be kept at a density between 50,000 cells/mL -500,000 cells/mL to provide for optimum growth and adequate nutrition. The cell line should be maintained at 37° C. in a humidified atmosphere with 5% CO2 in a sterile cell culture incubator.
(§2) Non Small Cell Lung Cancer Proliferation Assay.
(§3) High Controls for this assay are made by treating Non Small Cell Lung Cancer cells with 5 ul of 10% DMSO. [Final concentration in this assay is 1% DMSO].
(§4) Important Note: All compounds for testing in this assay should be done at the final concentration of 1% DMSO.
(§5) After addition, the cells are placed in cell culture incubator at 37° C. for 48 hours for complete treatment.
(§6) After drug treatment, cytotoxicity is measured by Alamar Blue reduction.
(§7) The cells are incubated for 48 hours at 37° C. to complete the Alamar Blue reduction.
(§8) The final step in the assay is to measure the amount of Alamar Blue reduction. […] The Alamar Blue fluorescence is measured at an excitation of 530 nm and emission of 590 nm.
(§9) For the NSCLC project, the cell based assay was screened against a small molecule library of approximately 200,000 compounds. The compound library is stored in our automated robotic freezer (Biophile) at −20° C. in 100% DMSO. Compound freeze and thaw cycles are kept to a minimum. […] This assay was performed on a fully automated linear track robotic platform (CRS F3 Robot System, Thermo Electron Corp., Ontario, Canada) utilizing several integrated peripherals for plate handling, liquid dispensing, and readout detection. […] The microplates are then placed at 37° C. for 48 hours to complete treatment of cells with compounds. Next, 5 ul of alamar blue was added using a liquid dispenser (Flexprop Precision Dispenser, Perkin Elmer, Mass., USA) and incubated for 48 hours at 37° C. The alamar blue prompt fluorescence was measured on Victor V (Victor^3 V, Perkin Elmer, Mass., USA) and output data files were loaded into ORIS (Oncology Research Informatics System, MSKCC, NY, USA), a screening data acquisition and analysis platform.
(§10) The dose response studies were done with the following standard procedure. First, the cells were counted and dispensed at 250 cells/well into 384-well microplates with compound. The cells were incubated for 48 hours at 37 C to complete treatment, and then alamar blue was added for an additional 48 hours. Finally, alamar blue reduction was measured and the data was loaded into ORIS, our data screening acquisition platform.

[2] = system: H1650; assay: Non Small Cell Lung Cancer proliferation assay (Alamar Blue reduction), H1650; settings: Homo sapiens, NCI-H1650; primary screening; H1650; 10 μM compound in 1% DMSO (v/v); read-out: PRIMARY HTS [%] H1650 (percentage inhibition)
Protocol: as §1, §2, §3, §4, §5, §6, §7, §8, §9, §10

[3] = system: H3255; assay: Non Small Cell Lung Cancer proliferation assay (Alamar Blue reduction), H3255; settings: Homo sapiens, NCI-H3255; primary screening; H3255; 10 μM compound in 1% DMSO (v/v); read-out: PRIMARY HTS [%] H3255 (percentage inhibition)
Protocol: as §1, §2, §3, §4, §5, §6, §7, §8, §9, §10

[4] = system: H1975; assay: Non Small Cell Lung Cancer proliferation assay (Alamar Blue reduction), H1975; settings: Homo sapiens, NCI-H1975; primary screening; H1975; 10 μM compound in 1% DMSO (v/v); read-out: PRIMARY HTS [%] H1975 (percentage inhibition)
Protocol: as §1, §2, §3, §4, §5, §6, §7, §8, §9, §10

| SMILES | inhibition at 10 µM [1] [%] | inhibition at 10 µM [2] [%] | inhibition at 10 µM [3] [%] | inhibition at 10 µM [4] [%] |
| --- | --- | --- | --- | --- |
| O=C(Nc1c(Cl)cccc1Cl)c1cc2ccccc2o1 [compound 60998] | 1 | 10 | 1 | 19 |
| Cc1ccc(C(=O)Nc2ccc(NC(=O)c3ccco3)c(C)c2)c(Cl)c1 [compound 61302] | -2 | 13 | 2 | 16 |
| O=C(Nc1ccc(Cl)cc1F)c1ccco1 [compound 66598] | 0 | 8 | 1 | 8 |
| Cc1ccc(C(=O)Nc2cc([N+](=O)[O-])ccc2C)o1 [compound 66776] | -3 | 13 | 2 | 2 |
| O=C(Nc1ccc(NC(=O)c2ccc(Cl)cc2Cl)cc1)c1ccco1 [compound 72456] | 8 | 12 | 7 | 9 |
| O=C(Nc1ccc(Cl)cc1O)c1ccco1 [compound 75072] | 5 | 13 | 1 | 0 |
| O=C(Nc1ccc(NC(=O)c2ccco2)cc1)c1ccc(-c2ccccc2)cc1 [compound 76739] | 3 | 13 | 5 | -9 |
| O=C(Nc1ccc(NC(=O)c2ccco2)c(O)c1)c1ccccc1 [compound 76839] | -6 | 20 | 2 | 3 |
| O=C(Nc1ccc(Cl)cc1)c1cc2c(ccc3ccccc32)o1 [compound 77021] | -1 | 16 | 4 | -11 |
| CC1CN(C(=O)c2ccc([N+](=O)[O-])o2)CC(C)O1 (stereo not drawn) [compound 77942] | 6 | 14 | 7 | -2 |
| O=C(c1ccc([N+](=O)[O-])o1)N1CCOCC1 [compound 77953] | -6 | 12 | 0 | -1 |
| O=C(Nc1cccc(Cl)c1)c1ccco1 [compound 78107] | 4 | 14 | 6 | -14 |
| O=C(Nc1ccc(Cl)cc1)c1ccco1 [compound 78158] | 6 | 20 | 4 | -2 |
| CCN(Cc1ccccc1)C(=O)c1ccc([N+](=O)[O-])o1 [compound 78535] | 26 | 41 | 8 | -2 |
| Cc1cc([N+](=O)[O-])ccc1NC(=O)c1ccco1 [compound 79434] | 0 | 4 | 4 | -7 |
| Nc1ccc(NC(=O)c2ccco2)c(Cl)c1 [compound 82456] | -2 | 6 | 2 | -15 |
| Cc1cc(Cl)ccc1NC(=O)CN1CCN(C(=O)c2ccco2)CC1 [compound 83809] | 2 | 22 | 2 | -10 |
| Cc1cccc(NC(=O)c2cc3cc([N+](=O)[O-])ccc3o2)c1 [compound 84487] | 5 | 27 | 3 | -5 |
